Test system: 883617-216-R-J1-PDC tumor spheroids, viability
Experiment: Anticancer human tumor 883617-216-R-J1-PDC patient-derived bladder carcinoma cell line growth inhibition [PI3K]
Settings: spheroids with HUVEC and MSC; for IC50: curve of first compound; for viability, T/C: stronger effect = lower value
In short: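 Agents were dosed from a top concentration near clinical Cmax (otherwise 10 microM) in half-log decrements, alone or combined with PI3K inhibitors. The spheroids contain tumor cells plus endothelial (HUVEC) and MSC stroma; viability is measured.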

[1] = second compound 0.0316 µM, first compound 0.0316 µM
[2] = second compound 0.0316 µM, first compound 0.1 µM
[3] = second compound 0.1 µM, first compound 0.0316 µM
[4] = second compound 0.1 µM, first compound 0.1 µM
[5] = second compound 0.316 µM, first compound 0.0316 µM
[6] = second compound 0.316 µM, first compound 0.1 µM
[7] = second compound 1 µM, first compound 0.0316 µM
[8] = second compound 1 µM, first compound 0.1 µM
[9] = second compound 3.16 µM, first compound 0.0316 µM
[10] = second compound 3.16 µM, first compound 0.1 µM
[11] = second compound 10 µM, first compound 0.0316 µM
[12] = second compound 10 µM, first compound 0.1 µM
[13] = second compound 0.0316 µM, first compound 0.316 µM
[14] = second compound 0.0316 µM, first compound 1 µM
[15] = second compound 0.0316 µM, first compound 3.16 µM
[16] = second compound 0.0316 µM, first compound 10 µM
[17] = second compound 0.1 µM, first compound 0.316 µM
[18] = second compound 0.1 µM, first compound 1 µM
[19] = second compound 0.1 µM, first compound 3.16 µM
[20] = second compound 0.1 µM, first compound 10 µM
[21] = second compound 0.316 µM, first compound 0.316 µM
[22] = second compound 0.316 µM, first compound 1 µM
[23] = second compound 0.316 µM, first compound 3.16 µM
[24] = second compound 0.316 µM, first compound 10 µM
[25] = second compound 1 µM, first compound 0.316 µM
[26] = second compound 1 µM, first compound 1 µM
[27] = second compound 1 µM, first compound 3.16 µM
[28] = second compound 1 µM, first compound 10 µM
[29] = second compound 3.16 µM, first compound 0.316 µM
[30] = second compound 3.16 µM, first compound 1 µM
[31] = second compound 3.16 µM, first compound 3.16 µM
[32] = second compound 3.16 µM, first compound 10 µM
[33] = second compound 10 µM, first compound 0.316 µM
[34] = second compound 10 µM, first compound 1 µM
[35] = second compound 10 µM, first compound 3.16 µM
[36] = second compound 10 µM, first compound 10 µM
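Further: spheroids exposed to agents for 7 days before the viability read.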

In the case of `CC(C)n1nc(-c2ccc3oc(N)nc3c2)c2c(N)ncnc21` + Cc1nc(NC(=O)N2CCCC2C(N)=O)sc1-c1ccnc(C(C)(C)C(F)(F)F)c1, the IC50 (second compound 0.0316 µM) is reported as 18.3 nM, the IC50 (second compound 0.1 µM) is reported as 12.6 nM and the IC50 (second compound 0.316 µM) is reported as 0.358 nM. The IC50 (second compound 1 µM) was less than 0.316 nM, the IC50 (second compound 3.16 µM) was less than 0.316 nM and the IC50 (second compound 10 µM) was less than 0.316 nM. The viability, T/C (second compound 0.0316 µM, first compound 0.000316 µM) was 79.6%, the viability, T/C (second compound 0.0316 µM, first compound 0.001 µM) was 72.5% and the viability, T/C (second compound 0.0316 µM, first compound 0.00316 µM) was 69.5%. It also gave a viability, T/C (second compound 0.0316 µM, first compound 0.01 µM) of 60.3%, a viability, T/C [1] of 41.1% and a viability, T/C [2] of 18.4%. It also gave a viability, T/C (second compound 0.1 µM, first compound 0.000316 µM) of 61.9%, a viability, T/C (second compound 0.1 µM, first compound 0.001 µM) of 66.6% and a viability, T/C (second compound 0.1 µM, first compound 0.00316 µM) of 62.1%. For the same compound, the viability, T/C (second compound 0.1 µM, first compound 0.01 µM) was 52.9%, the viability, T/C [3] was 35.5% and the viability, T/C [4] was 15.7%. The viability, T/C (second compound 0.316 µM, first compound 0.000316 µM) was 47.2%, the viability, T/C (second compound 0.316 µM, first compound 0.001 µM) was 54% and the viability, T/C (second compound 0.316 µM, first compound 0.00316 µM) was 45.2%. For the same compound, the viability, T/C (second compound 0.316 µM, first compound 0.01 µM) was 40.6%, the viability, T/C [5] was 25.9% and the viability, T/C [6] was 12.7%. The viability, T/C (second compound 1 µM, first compound 0.000316 µM) was 29.1%, the viability, T/C (second compound 1 µM, first compound 0.001 µM) was 24.7% and the viability, T/C (second compound 1 µM, first compound 0.00316 µM) was 38.1%. For the same compound, the viability, T/C (second compound 1 µM, first compound 0.01 µM) was 22.4%, the viability, T/C [7] was 16.4% and the viability, T/C [8] was 9.37%. For the same compound, the viability, T/C (second compound 3.16 µM, first compound 0.000316 µM) was 16%, the viability, T/C (second compound 3.16 µM, first compound 0.001 µM) was 15.7% and the viability, T/C (second compound 3.16 µM, first compound 0.00316 µM) was 12.4%. The viability, T/C (second compound 3.16 µM, first compound 0.01 µM) was 17.6%, the viability, T/C [9] was 9.92% and the viability, T/C [10] was 4.95%. It also gave a viability, T/C (second compound 10 µM, first compound 0.000316 µM) of 7.13%, a viability, T/C (second compound 10 µM, first compound 0.001 µM) of 7.02% and a viability, T/C (second compound 10 µM, first compound 0.00316 µM) of 8.33%. For the same compound, the viability, T/C (second compound 10 µM, first compound 0.01 µM) was 6.52%, the viability, T/C [11] was 5.75% and the viability, T/C [12] was 2.9%.
`CCCS(=O)(=O)Nc1ccc(F)c(C(=O)c2c[nH]c3ncc(-c4ccc(Cl)cc4)cc23)c1F` + Cc1nc(NC(=O)N2CCCC2C(N)=O)sc1-c1ccnc(C(C)(C)C(F)(F)F)c1 showed an IC50 (second compound 0.0316 µM) of 4360 nM, an IC50 (second compound 0.1 µM) of 4380 nM and an IC50 (second compound 0.316 µM) of 858 nM. The IC50 (second compound 1 µM) was less than 31.6 nM, the IC50 (second compound 3.16 µM) was less than 31.6 nM and the IC50 (second compound 10 µM) was less than 31.6 nM. The viability, T/C [1] was 75.6%, the viability, T/C [2] was 83.1% and the viability, T/C [13] was 88.1%. It also gave a viability, T/C [14] of 92.9%, a viability, T/C [15] of 66.4% and a viability, T/C [16] of 7.45%. The viability, T/C [3] was 84.8%, the viability, T/C [4] was 78.3% and the viability, T/C [17] was 65%. It also gave a viability, T/C [18] of 74%, a viability, T/C [19] of 66% and a viability, T/C [20] of 9.98%. It also gave a viability, T/C [5] of 53.6%, a viability, T/C [6] of 55.1% and a viability, T/C [21] of 51.4%. For the same compound, the viability, T/C [22] was 49.2%, the viability, T/C [23] was 39.8% and the viability, T/C [24] was 10.4%. It also gave a viability, T/C [7] of 33.3%, a viability, T/C [8] of 26.5% and a viability, T/C [25] of 34.3%. For the same compound, the viability, T/C [26] was 39.8%, the viability, T/C [27] was 35.9% and the viability, T/C [28] was 7.76%. The viability, T/C [9] was 16.6%, the viability, T/C [10] was 16.3% and the viability, T/C [29] was 17.8%. The viability, T/C [30] was 19.3%, the viability, T/C [31] was 16.6% and the viability, T/C [32] was 7.14%. The viability, T/C [11] was 7.33%, the viability, T/C [12] was 7.82% and the viability, T/C [33] was 7.92%. It also gave a viability, T/C [34] of 10%, a viability, T/C [35] of 9.86% and a viability, T/C [36] of 4.55%.
Compound `CCCS(=O)(=O)Nc1ccc(F)c(C(=O)c2c[nH]c3ncc(-c4ccc(Cl)cc4)cc23)c1F` + CC(Nc1ncnc2nc[nH]c12)c1cc2cccc(Cl)c2c(=O)n1-c1ccccc1 has an IC50 (second compound 0.0316 µM) of 4210 nM, an IC50 (second compound 0.1 µM) of 4650 nM and an IC50 (second compound 0.316 µM) of 4540 nM. For the same compound, the IC50 (second compound 1 µM) was 3910 nM, the IC50 (second compound 3.16 µM) was 3620 nM and the IC50 (second compound 10 µM) was 1700 nM. The viability, T/C [1] was 94.8%, the viability, T/C [2] was 92.3% and the viability, T/C [13] was 97.1%. It also gave a viability, T/C [14] of 102%, a viability, T/C [15] of 63.4% and a viability, T/C [16] of 9.37%. For the same compound, the viability, T/C [3] was 85%, the viability, T/C [4] was 91.8% and the viability, T/C [17] was 114%. The viability, T/C [18] was 85.1%, the viability, T/C [19] was 70.5% and the viability, T/C [20] was 10.7%. It also gave a viability, T/C [5] of 91.8%, a viability, T/C [6] of 91.1% and a viability, T/C [21] of 95%. The viability, T/C [22] was 97.1%, the viability, T/C [23] was 67.7% and the viability, T/C [24] was 11.3%. For the same compound, the viability, T/C [7] was 99.9%, the viability, T/C [8] was 89% and the viability, T/C [25] was 87.9%. The viability, T/C [26] was 72.4%, the viability, T/C [27] was 65.1% and the viability, T/C [28] was 9.68%. The viability, T/C [9] was 75.3%, the viability, T/C [10] was 75.7% and the viability, T/C [29] was 72.1%. For the same compound, the viability, T/C [30] was 71.5%, the viability, T/C [31] was 55.2% and the viability, T/C [32] was 10.6%. The viability, T/C [11] was 52.9%, the viability, T/C [12] was 57.4% and the viability, T/C [33] was 55.3%. It also gave a viability, T/C [34] of 66.5%, a viability, T/C [35] of 40.5% and a viability, T/C [36] of 11.8%.
In the case of `C#Cc1c(F)ccc2cc(O)cc(-c3ncc4c(N5CC6CCC(C5)N6)nc(OCC56CCCN5CC(F)C6)nc4c3F)c12` (stereo not drawn) + Cc1nc(NC(=O)N2CCCC2C(N)=O)sc1-c1ccnc(C(C)(C)C(F)(F)F)c1, the IC50 (second compound 0.0316 µM) is reported as greater than 10000 nM, the IC50 (second compound 0.1 µM) is reported as 6560 nM and the IC50 (second compound 0.316 µM) is reported as less than 31.6 nM. The IC50 (second compound 1 µM) was less than 31.6 nM, the IC50 (second compound 3.16 µM) was less than 31.6 nM and the IC50 (second compound 10 µM) was less than 31.6 nM. For the same compound, the viability, T/C [1] was 81.1%, the viability, T/C [2] was 89.1% and the viability, T/C [13] was 77.6%. It also gave a viability, T/C [14] of 80.9%, a viability, T/C [15] of 79.7% and a viability, T/C [16] of 57.5%. The viability, T/C [3] was 69.8%, the viability, T/C [4] was 66.5% and the viability, T/C [17] was 76.8%. For the same compound, the viability, T/C [18] was 74.2%, the viability, T/C [19] was 63.1% and the viability, T/C [20] was 41.1%. For the same compound, the viability, T/C [5] was 53.8%, the viability, T/C [6] was 47.3% and the viability, T/C [21] was 45.5%. It also gave a viability, T/C [22] of 46.5%, a viability, T/C [23] of 43.7% and a viability, T/C [24] of 24.7%. The viability, T/C [7] was 28.2%, the viability, T/C [8] was 28.3% and the viability, T/C [25] was 26.8%. The viability, T/C [26] was 29%, the viability, T/C [27] was 24.7% and the viability, T/C [28] was 19.9%. It also gave a viability, T/C [9] of 15.2%, a viability, T/C [10] of 13.1% and a viability, T/C [29] of 12.6%. It also gave a viability, T/C [30] of 14.5%, a viability, T/C [31] of 15.3% and a viability, T/C [32] of 8.2%. The viability, T/C [11] was 7.88%, the viability, T/C [12] was 7.4% and the viability, T/C [33] was 5.56%. For the same compound, the viability, T/C [34] was 7.83%, the viability, T/C [35] was 5.24% and the viability, T/C [36] was 0.61%.

Reference: PubChem BioAssay AID1963973 (Molecular Pharmacology Branch, DTP, NCI, 2024)
